# Positions count from the first letter of the chain named.
# Key:
# [1] = molecular target: T1, METTL21D in p97-ND1:ASPL-CΔ:METTL21D (Homo sapiens, UniProt Q9H867); assay: X-ray crystal structure, […] Å; assay type: binding; conditions: METTL21D active site; crystallized with SAM, product of p97 Lys315 trimethylation; contacts Asp96, Trp126
# T1 construct: gene VCPKMT; 1:1:1 heterotrimer ~110 kDa; METTL21D His tag cleaved by TEV; p97-ND1 fragment lacking D2 domain, Lys315 trimethylated; ASPL-CΔ residues 313-500; E. coli; with Transitional endoplasmic reticulum ATPase; Tether containing UBX domain for GLUT4
# AtMETTL21D [2] = molecular target: T2, AtMETTL21D (Arabidopsis thaliana, UniProt F4HUD6); assay: methylation assay, anti-monomethyl-lysine western blot; assay type: biochemical; conditions: automethylation and monomethylation of AtCDC48 in the presence of PUX1; pH 8.0, RT
# T2 construct: gene At1g08125; E. coli; His tag cleaved by TEV
# T2 sequence (F4HUD6 15-239): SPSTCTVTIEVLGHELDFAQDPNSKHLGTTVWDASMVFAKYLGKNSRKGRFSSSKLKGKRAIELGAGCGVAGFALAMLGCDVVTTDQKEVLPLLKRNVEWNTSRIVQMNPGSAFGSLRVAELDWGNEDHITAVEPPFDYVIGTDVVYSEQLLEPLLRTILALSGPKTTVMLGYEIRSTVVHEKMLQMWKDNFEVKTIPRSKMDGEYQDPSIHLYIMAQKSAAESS
# AtMETTL21D [3] = molecular target: T3, AtMETTL21D (Arabidopsis thaliana, UniProt F4HUD6, C19S/L26V, form not given); assay: methylation assay, anti-Kme3 western blot; assay type: biochemical; conditions: co-substrate AtCDC48; weak gain of trimethylation; 20 mM HEPES pH 8.0, 200 mM NaCl, RT
# T3 construct: gene At1g08125; E. coli; His tag cleaved by TEV
# T3 sequence (F4HUD6 15-239 C19S/L26V): T2 sequence (F4HUD6 15-239) with C5S, L12V
# T1 sequence (Q9H867 2-229 limits assumed, stated change not applied): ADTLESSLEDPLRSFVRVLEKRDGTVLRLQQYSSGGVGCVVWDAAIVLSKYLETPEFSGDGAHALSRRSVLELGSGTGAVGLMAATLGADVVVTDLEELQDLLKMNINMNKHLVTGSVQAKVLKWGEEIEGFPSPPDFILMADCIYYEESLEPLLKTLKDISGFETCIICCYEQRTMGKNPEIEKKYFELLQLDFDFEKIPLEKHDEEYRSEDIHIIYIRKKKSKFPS
# T1 sequence (P55072 2-480 partner limits assumed): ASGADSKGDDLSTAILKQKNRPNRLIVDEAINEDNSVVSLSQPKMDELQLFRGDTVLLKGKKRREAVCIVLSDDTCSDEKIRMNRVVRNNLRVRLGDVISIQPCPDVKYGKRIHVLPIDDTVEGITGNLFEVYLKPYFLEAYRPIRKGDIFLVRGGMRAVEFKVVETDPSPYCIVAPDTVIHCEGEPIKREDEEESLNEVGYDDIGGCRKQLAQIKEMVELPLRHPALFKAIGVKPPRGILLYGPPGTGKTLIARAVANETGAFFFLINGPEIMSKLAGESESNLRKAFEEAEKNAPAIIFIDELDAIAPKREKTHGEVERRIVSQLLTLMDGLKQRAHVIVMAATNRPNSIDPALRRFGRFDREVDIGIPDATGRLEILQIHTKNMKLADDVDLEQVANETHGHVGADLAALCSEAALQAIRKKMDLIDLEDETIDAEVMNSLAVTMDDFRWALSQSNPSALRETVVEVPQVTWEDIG
# T1 sequence (Q9BZE9 313-500 partner): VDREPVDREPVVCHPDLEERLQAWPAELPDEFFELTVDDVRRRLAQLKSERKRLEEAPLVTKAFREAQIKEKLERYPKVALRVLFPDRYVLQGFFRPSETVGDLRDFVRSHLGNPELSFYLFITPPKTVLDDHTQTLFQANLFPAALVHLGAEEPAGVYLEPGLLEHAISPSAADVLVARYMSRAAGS
Compound,"X-ray crystal structure, 3.0 Å [1]","methylation assay, anti-monomethyl-lysine western blot (AtMETTL21D [2])","methylation assay, anti-Kme3 western blot (AtMETTL21D [3])"
Nc1ncnc2c1ncn2[C@@H]1O[C@H](CSCC[C@H](N)C(=O)O)[C@@H](O)[C@H]1O [S-adenosyl-L-homocysteine],the active site of METTL21D contains a S-adenosyl-L-homocysteine (SAH) molecule,–,–
C[S+](CC[C@H](N)C(=O)O)C[C@H]1O[C@@H](n2cnc3c(N)ncnc32)[C@H](O)[C@@H]1O (stereo partly drawn) [S-adenosyl-methionine],–,"AtMETTL21D monomethylated itself, as well as AtCDC48 in the presence of PUX1",substitution of leucine with valine in plant AtMETTL21D resulted in gain of trimethylation activity

# — paper PMC9942839, “Structural remodeling of AAA+ ATPase p97 by adaptor protein ASPL facilitates posttranslational methylation by METTL21D” (Proceedings of the National Academy of Sciences of the …, 2023)
